What was measured:
STING [1] = test: ISG activity of protein:CDN and antigen:CDN conjugates in reporter cell lines; assay type: cell-based
Source text: In the present invention, we evaluated using reporter cell lines the ISG activity of protein:CDN conjugates using in vitro conditions favorable to the release of both components.

STING [2] = biological target: STING (Homo sapiens, UniProt Q86WV6, G230A/H232R/R293Q/R71H); test: ISG54 (IRF pathway) reporter assay in THP1-Dual cells
Type I IFNs [3] = test: Whole-blood assay, type I IFN induction (HEK-Blue IFN-α/β-KO-STING readout); assay type: cell-based, human; conditions: relative to CL656 at 1 μM
STING [4] = biological target: T1, STING (Mus musculus, UniProt Q3TBT3); test: ISG reporter assay in RAW-Lucia ISG cells
T1 sequence (Q3TBT3 1-378): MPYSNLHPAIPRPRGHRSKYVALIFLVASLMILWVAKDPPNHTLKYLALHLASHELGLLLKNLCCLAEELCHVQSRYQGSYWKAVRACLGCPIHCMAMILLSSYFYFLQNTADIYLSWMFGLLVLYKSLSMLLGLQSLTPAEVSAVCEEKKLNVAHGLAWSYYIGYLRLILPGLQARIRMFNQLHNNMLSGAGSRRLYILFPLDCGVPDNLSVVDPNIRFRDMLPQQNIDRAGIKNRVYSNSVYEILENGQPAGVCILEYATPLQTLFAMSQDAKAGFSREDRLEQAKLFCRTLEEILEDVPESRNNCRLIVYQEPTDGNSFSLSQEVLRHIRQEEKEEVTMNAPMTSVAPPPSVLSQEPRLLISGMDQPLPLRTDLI

[5] = Lipid-based nanoparticle formation (PdI, Z Ave); assay type: physicochemical; conditions: for Z Ave (nm): lipid BAM-CDN particles; for PdI: polydispersity index of lipid BAM-CDN
Type I IFNs [6] = test: Whole-blood assay, type I IFN induction (HEK-Blue IFN-α/β-KO-STING readout); assay type: cell-based, human; conditions: whole blood assay, type I IFN; read-out: EC50 (μM) IFN in WBA
Source text: Type I IFNs: HEK-Blue™ IFN-α/β-KO-STING: These cells, in which the STING gene has been inactivated, are derived from HEK293 cell line known as HEK-Blue™ IFN-α/β (InvivoGen catalog code: hkb-ifnab). HEK-Blue™ IFN-α/β cells enable detection of bioactive human type I IFNs through monitoring of activation of the […]. These cells were generated by stable transfection of HEK293 cells with the human STAT2 and IRF9 genes to obtain a fully active Type-I IFN signaling pathway. The other genes of the pathway (IFNAR1, IFNAR2, JAK1, TyK2 and STAT1) are naturally expressed in sufficient amounts. The cells were further transfected with a SEAP reporter gene under control of an IFNα/β-inducible ISG54 promoter. This promoter comprises five IFN-stimulated response elements (ISREs) fused to a minimal promoter of the human ISG54 gene, which is unresponsive to activators of the NF-κB or AP-1 pathways. Stimulation of HEK-Blue™ IFN-α/β cells with human IFN-α or IFN-β activates the JAK/STAT/ISGF3 pathway and subsequently induces production of SEAP. Production of type I IFNs in these cells is measured using QUANTI-Blue™.
Briefly, the samples were collected by venipuncture into sodium heparin tubes at the time of donation. The samples were analyzed for rhesus (Rh), blood group, hematocrit and serological status (AgHBS, HIV, HCV, HTLV, HBC, CMV, Syph). The tubes were picked up on the day of collection and subsequently tested (blood analysis, and treatment with test items) on the same day.
Each blood sample was diluted (1:2 [v/v]) in RPMI medium and aliquoted into 96-well plates (180-μL wells) containing either CDN (√10-fold serial dilution starting from 50 μM). The plates were incubated at 37° C. in a 5% CO2 incubator for 18 hours. Then, the supernatants were collected, transferred into the corresponding wells of round-bottom 96-well plates, and either stored at −80° C., or immediately tested in the appropriate reporter cell line.
A new 96-wells plate was prepared for each reporter cell lines tested, as follows: 10 μL of supernatant from the previous plate were added to the corresponding well in the new reporter cell plate. Then, a 190-μL aliquot of cells of the desired reporter cell line, previously harvested in medium containing heat-inactivated serum and counted, was added to each well (approximately 50,000 cells/well), and the plate was incubated for approximately 20 hours. The desired cytokine induction activity was determined using the QUANTI-Blue™ assay, as previously described. Briefly, 20 μL of supernatant from the previously incubated plate was transferred to the corresponding well of a new 96-well plate in which 180 μL of QUANTI-Blue™ reagent had previously been added.

PDL1 = PDL1 (Homo sapiens, UniProt Q9NZQ7); test: Antigen binding ELISA of anti-PDL1mAb:CDN conjugate; conditions: relative to anti PDL1 at 10 μg/mL
PDL1, sequence (Q9NZQ7 19-290, species assumed): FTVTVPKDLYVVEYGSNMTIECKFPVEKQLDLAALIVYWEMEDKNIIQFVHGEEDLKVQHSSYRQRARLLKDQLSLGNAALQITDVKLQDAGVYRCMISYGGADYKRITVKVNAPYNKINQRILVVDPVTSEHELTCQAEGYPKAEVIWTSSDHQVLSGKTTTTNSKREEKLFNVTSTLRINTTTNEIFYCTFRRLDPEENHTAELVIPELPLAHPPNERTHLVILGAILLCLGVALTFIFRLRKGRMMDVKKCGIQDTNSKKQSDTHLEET
Source text: We performed Whole Blood Assay on healthy human donors to evaluate the ability of the anti-PDL1mAb:CDN conjugate (Compound 47) to induce type I interferons as described previously in Example 2.2. The binding properties of the anti-PDL1mAb:CDN conjugate have been evaluated using ELISA.

STING (Homo sapiens, UniProt Q86WV6, G230A/H232R/R293Q/R71H), sequence (Q86WV6 whole entry R71H/G230A/H232R/R293Q): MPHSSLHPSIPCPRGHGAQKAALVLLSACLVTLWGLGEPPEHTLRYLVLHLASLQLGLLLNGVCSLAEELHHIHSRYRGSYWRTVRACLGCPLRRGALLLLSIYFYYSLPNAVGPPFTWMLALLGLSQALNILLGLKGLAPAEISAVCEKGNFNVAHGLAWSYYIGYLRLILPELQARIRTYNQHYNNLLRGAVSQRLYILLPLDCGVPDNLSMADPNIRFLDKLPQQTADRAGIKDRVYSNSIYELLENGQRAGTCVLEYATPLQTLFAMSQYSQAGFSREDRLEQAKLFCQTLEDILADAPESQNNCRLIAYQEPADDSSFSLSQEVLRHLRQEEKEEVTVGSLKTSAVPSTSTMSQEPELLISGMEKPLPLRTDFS

EC50 (STING [2])	Fold ISG induction vs unstimulated @10 μM (STING [2]; 10 μM, THP1-Dual cells)	Antigen binding (% of anti PDL1 @ 10 μg/mL) (PDL1)	Compound	ISG activity @ 50 μg/mL (% of CL656 @ 1 μM) (STING [1]; antigen:CDN conjugates)	ISG activity @ 50 μg/mL (% of parental CND @ 1 μM) (STING [1]; in vitro conditions favorable to release of both components)	IFN activity @ 50 μg/mL in WBA (% of CL656 @ 1 μM) (Type I IFNs [3])	ISG activity compared with unmodified parental CDN (STING [4])	Z Ave (nm) [5]	PdI [5]	ISG activity compared with unmodified parental CDN (STING [2]; THP1-Dual cells)	EC50 (Type I IFNs [6])
1000 nM	215 fold	–	Nc1ncnc2c1ncn2[C@@H]1O[C@@H]2COP(=O)(S)O[C@H]3[C@@H](F)[C@H](n4cnc5c(=O)[nH]cnc54)O[C@@H]3COP(=O)(S)O[C@H]2[C@H]1F (some centres unmarked) [CL656, 3′3′-cAIM(PS)2 Difluor (Rp/Sp)]	100%	100%	100%	–	–	–	–	–
–	–	–	CCCCCCCCCCCCCCCC(=O)N[C@H](C(=O)N[C@@H](CCCNC(N)=O)C(=O)Nc1ccc(CSP2(=O)OC[C@H]3O[C@@H](n4cnc5c(N)ncnc54)[C@H](F)[C@@H]3OP(=O)(O)OC[C@H]3O[C@@H](n4cnc5c(O)ncnc54)C[C@@H]3O2)cc1)C(C)C (some centres unmarked) [CL848]	–	–	–	higher ISG activity than the unmodified parental CDN	84.3 nm	0.18	higher ISG activity than the unmodified parental CDN	0.11 µM
–	–	–	CCCCCCCCCCCCCCCC(=O)N[C@H](C(=O)N[C@@H](C)C(=O)Nc1ccc(CSP2(=O)OC[C@H]3O[C@@H](n4cnc5c(N)ncnc54)[C@H](F)[C@@H]3OP(=O)(O)OC[C@H]3O[C@@H](n4cnc5c(O)ncnc54)[C@H](F)[C@@H]3O2)cc1)C(C)C (some centres unmarked) [CL849]	–	–	–	higher ISG activity than the unmodified parental CDN	152.4 nm	0.56	higher ISG activity than the unmodified parental CDN	–
–	–	–	CCCCCCCCCCCCCCCC(=O)N[C@H](C(=O)N[C@@H](CCCNC(N)=O)C(=O)Nc1ccc(CSP2(=O)OC[C@H]3O[C@@H](n4cnc5c(N)ncnc54)[C@H](F)[C@@H]3OP(=O)(S)OC[C@H]3O[C@@H](n4cnc5c(O)ncnc54)[C@H](F)[C@@H]3O2)cc1)C(C)C (some centres unmarked) [CL853]	–	–	–	higher ISG activity than the unmodified parental CDN	155.9 nm	0.188	higher ISG activity than the unmodified parental CDN	0.14 µM
–	–	–	CCCCCCCCCCCCCCCC(=O)N[C@H](C(=O)N[C@@H](C)C(=O)Nc1ccc(CSP2(=O)OC[C@H]3O[C@@H](n4cnc5c(N)ncnc54)[C@H](F)[C@@H]3OP(=O)(S)OC[C@H]3O[C@@H](n4cnc5c(O)ncnc54)[C@H](F)[C@@H]3O2)cc1)C(C)C (some centres unmarked) [CL863]	–	–	–	higher ISG activity than the unmodified parental CDN	106.6 nm	0.416	higher ISG activity than the unmodified parental CDN	0.15 µM
–	–	100%	Atezolizumab	–	–	0%	–	–	–	–	–

From patent US11730817B2, “Pro-cyclic dinucleotides and pro-cyclic dinucleotide conjugates for cytokine induction” (INVIVOGEN, priority 2017, dated 2023)
